The text below walks through data of patent publication US20240279612A1, “LIVER ORGANOID MANUFACTURING METHODS, LIVER ORGANOIDS OBTAINED WITH THE SAME, AND USES THEREOF” (INSTITUT NATIONAL DE LA SANTÉ ET DE LA RECHERCHE MÉDICALE, priority 2021, published 2024).

Read-outs that look alike come from different tables or passages of the source.

For one series, the system named is CYP1A2. Put plainly: Induction of CYP1A2 activity (phenacetin to acetaminophen, LC-MS/MS) in PHH. It counts as in vitro ADME, human. The settings on record: PHH model, omeprazole 50 μM for 3 days, versus basal (DMSO 0.1%). Here is the method:
(§1) The primary human hepatocyte (PHH) cell line was obtained from four different healthy donors. PHH cells culture was performed according to the LONZA protocol (described in Document #BR-CryoHep-1 07/20 www.bioscience.lonza.com © 2020 Lonza Walkersville, Inc) with cell seeding at 70,000 cells/well in collagen I-coated 96-well plates (Corning® BioCoat™ Collagen I 96 Clear Well Plate). One hour after seeding, the PHH cells were cultured by the Sandwich method using Matrigel (Corning® Matrigel® Matrix) according to the protocol described in Gijbels et al. (Experimental Cholestasis Research, 2019). PHH cells were used 3 days later (short duration) or 2 weeks later (long duration) for the experiments. PHH cell line was cultivated at 37° C. in a humidified atmosphere with 5% CO2.
(§2) PHH and LO grown in 96-well plates were treated by adding 200 μl/well and HLCs in 6-well plates by adding 1 ml/well of CYP's inductors in a hepatocyte culture medium (HCM) without EGF (Lonza—CC-3198).
(§3) CYPs were induced by different types of inducers (SIGMA) at different concentrations for 3 days (as detailed in TABLE 3): Omeprazole (50 μM), Rifampicin (10 μM), Imidazole (500 μM), Phenobarbital (500 μM) and CITCO (1 μM). A control condition (namely “basal”) is performed with DMSO […] instead of inducer. […]

In a further series the test system is CYP2B6. Put plainly: Induction of CYP2B6 activity (bupropion to hydroxybupropion, LC-MS/MS) in PHH. The settings on record: PHH model, versus basal (DMSO 0.1%). As for the experimental part: as §1, §2, §3
Series [1] deals with liver organoid (LO). The settings on record: 48 h. Here is the method:
Steatosis was induced by amiodarone at 20 μM or ethanol at […] for 2 days after the end of differentiation (Day 28). After fixation of the cells with paraformaldehyde (PFA 4% in PBS) for 15 minutes at room temperature, the lipids were labelled with Nile Red (50 ng/ml) for 1 hour at room temperature and then washed three times with PBS (1000 μl). At this step, samples can be stored in PBS at 4° C.
(§4) After the acquisition of different Z-stacks of the LOs, the images were analyzed and quantified by the image analysis software Metaxpress developed by Molecular Devices.

The test system of series [2] is liver organoid (LO). Put plainly: Internalization of LDL-bodipy by liver organoids. The settings on record: 20 hours, then 3 hours LDL-bodipy, compared to controls (FIG. 2). The series is classed as cell-based, human. Here is the method:
Treatment with mevastatin (20, 25 and 30 μg/ml) or DMSO (0.1%) was performed for 20 hours after the end of differentiation (Day 28). After treatment, LOs were incubated with LDL-bodipy (Invitrogen, Ref: L3483) for 3 hours (INVITROGEN). Finally, once the incubation with LDL-bodipy was completed, the scaffolds were washed three times with HCM medium (LONZA) at 37° C. and then the cells were fixed with paraformaldehyde (PFA 4% in PBS) for 15 minutes at room temperature. At this stage, the samples can be stored in PBS at 4° C.
as §4
Concerning LDL internalization, it was noted that the LO model significatively reacted to mevastatin at concentrations of 20, 25 and 30 ug/ml with an increase in LDL-bodipy internalization of 14, 18 and 26% respectively compared to controls (FIG. 2).

For the molecule `COc1ccc2[nH]c([S+]([O-])Cc3ncc(C)c(OC)c3C)nc2c1` (centres unmarked) [omeprazole, Omeprazole], in the series on CYP1A2, the “induction of CYP1A2” value came to 7.2 times. In the case of `CCC1(c2ccccc2)C(=O)NC(=O)NC1=O` [phenobarbital, Phenobarbital], in the series on CYP2B6 (phenobarbital 500 μM for 3 days), the “induction of CYP2B6” value was 5.8 times. For the molecule `CCO` [ethanol], the “increase in lipid accumulation” value in the series with liver organoid (LO) [1] (0.1 µM) was 29%. For `Clc1ccc(-c2nc3sccn3c2/C=N/OCc2ccc(Cl)c(Cl)c2)cc1` [CITCO], the “induction of CYP2B6” value in the series with CYP2B6 (CITCO 1 μM for 3 days) is on record as 3.3 times.

For `CC[C@H](C)C(=O)O[C@H]1CCC=C2C=C[C@H](C)[C@H](CC[C@@H]3C[C@@H](O)CC(=O)O3)[C@H]21` [mevastatin], the “increase in LDL-bodipy internalization” value in the series with liver organoid (LO) [2] (mevastatin 20 ug/ml) is reported as 14%; in the series with liver organoid (LO) [2] (mevastatin 25 ug/ml) it was 18%; in the series on liver organoid (LO) [2] (mevastatin 30 ug/ml), 26%. `CCCCc1oc2ccccc2c1C(=O)c1cc(I)c(OCCN(CC)CC)c(I)c1` [amiodarone]: the “increase in lipid accumulation” value in the series with liver organoid (LO) [1] (40 µM) is listed as 60%.
